# From patent US8846711B2, “Heterocyclic acrylamides and their use as pharmaceuticals” (Fab Pharma S.A.S., priority 2009, dated 2014)
# pIC50: −log10 of the molar value.
# What was measured:
# [1] = molecular target: recombinant S. aureus FabI enzyme (Staphylococcus aureus (strain MRSA252), UniProt Q6GI75); assay: FabI inhibition, fluorescence based assay; assay type: biochemical; details: in vitro
# In short: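 2 nM FabI preincubated 60 min at RT with compound, 40 μM NADPH and 10 μM NADP+ in 50 mM ADA pH 6.5, 1 mM DTT, 0.006% Triton X-100, 50 mM NaCl; started with 100 μM t-o-NAC. NADPH fluorescence (ex 360/em 520 nm) read at 0 and ~50 min. IC50 fitted to Langmuir model.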
# [2] = system: C. albicans (ATCC 90028); assay: MIC determination using susceptibility method (broth microdilution); assay type: cell-based; details: Candida albicans, ATCC90028, read-out: MIC (μg/ml) C. albicans (ATCC 90028)
# Experimental: (§1) Minimum inhibitory concentrations (MICs) were determined by broth microdilution according to CLSI guidelines (CLSI, M100-20^1, M7-A8^2, M27-A3^3). The compounds were tested in the range from […]. Colonies were taken directly from a second-pass culture plate and prepared to a suspension equivalent to the 0.5 McFarland standard using normal saline. […] The panels were incubated at 35° C. for 16 to 20 hours before reading the MIC endpoints. The compounds of Examples 12, 29, 59, 63 and 66-71 were dissolved in DMSO to make the initial solutions of 5120 μg/ml. These solutions were diluted 1:10 in sterile water to a stock solution of 512 μg/ml. The stock solutions were further diluted into the appropriate broth medium for the sequential dilutions used in the broth microdilution panels. S. pneumoniae was tested in Mueller Hinton (MH) broth with 3% lysed horse blood and C. albicans was tested in RPMI-1640 medium. All other organisms were tested in MH broth.
# [3] = system: E. coli (ATCC 25922); assay: as above; assay type: cell-based; details: Escherichia coli, ATCC25922, read-out: MIC (μg/ml) E. coli (ATCC 25922)
# Experimental: as §1
# [4] = system: E. faecalis (ATCC 29212); assay: as above; assay type: cell-based; details: Enterococcus faecalis, ATCC29212, read-out: MIC (μg/ml) E. faecalis (ATCC 29212)
# Experimental: as §1
# [5] = system: MRSA (IHMA #510059); assay: as above; assay type: cell-based; details: Staphylococcus aureus, read-out: MIC (μg/ml) MRSA (IHMA #510059)
# Experimental: as §1
# [6] = system: MSSA (IHMA #555189); assay: as above; assay type: cell-based; details: Staphylococcus aureus, read-out: MIC (μg/ml) MSSA (IHMA #555189)
# Experimental: as §1
# [7] = system: S. aureus ATCC 29213; assay: as above; assay type: cell-based; details: Staphylococcus aureus, ATCC29213, read-out: MIC (μg/ml) S. aureus ATCC 29213
# Experimental: as §1
# [8] = system: S. pneumoniae (ATCC 49619); assay: as above; assay type: cell-based; details: Streptococcus pneumoniae, ATCC49619, read-out: MIC (μg/ml) S. pneumoniae (ATCC 49619)
# Experimental: as §1
# [9] = molecular target: human albumin (HSA) (Homo sapiens (Human), UniProt P02768); assay: HSA binding analysis using a chiral HSA column; assay type: in vitro ADME
# Chain of human albumin (HSA) (P02768 25-609): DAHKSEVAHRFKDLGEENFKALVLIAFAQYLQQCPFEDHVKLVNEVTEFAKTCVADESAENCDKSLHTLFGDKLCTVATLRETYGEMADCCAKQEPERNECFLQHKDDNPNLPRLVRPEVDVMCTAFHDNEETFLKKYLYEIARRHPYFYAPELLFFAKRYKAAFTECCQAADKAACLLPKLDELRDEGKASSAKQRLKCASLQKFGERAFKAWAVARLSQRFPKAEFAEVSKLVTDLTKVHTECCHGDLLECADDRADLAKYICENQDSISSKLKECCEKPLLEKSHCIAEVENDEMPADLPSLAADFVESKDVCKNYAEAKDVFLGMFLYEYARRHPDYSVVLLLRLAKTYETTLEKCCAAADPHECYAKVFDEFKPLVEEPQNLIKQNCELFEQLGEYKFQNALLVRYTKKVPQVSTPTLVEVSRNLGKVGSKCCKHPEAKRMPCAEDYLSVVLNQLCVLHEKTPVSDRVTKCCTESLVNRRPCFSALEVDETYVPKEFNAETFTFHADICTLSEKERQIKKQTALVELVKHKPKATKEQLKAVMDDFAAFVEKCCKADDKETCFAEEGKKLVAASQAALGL
# Source text: The test system used in this analysis was an HSA chiral column.
# The relationship between the retention time (Tr) and percentage of albumin binding (AB %) depended on the dead time (TO) and the capacity factor (k′): AB%=[k′/(k′+1)]*100
# HSA binding was classified as follows:
# 75%≦AB<90%: Moderate binding
smiles,measurement,setting,value
"O=C1CCc2cc(/C=C/C(=O)N3CC(OCc4cccs4)C3)cnc2N1 [Example 12, 6-{(1E)-3-Oxo-3-[3-(2-thienylmethoxy)azetidin-1-yl]prop-1-en-1-yl}-3,4-dihydro-1,8-naphthyridin-2(1H)-one]",pIC50,[1],7.89
same,MIC,[2],> 128 µg/mL
same,MIC,[3],> 128 µg/mL
same,MIC,[4],> 128 µg/mL
same,MIC,[5],1 µg/mL
same,MIC,[6],1 µg/mL
same,MIC,[7],1 µg/mL
same,MIC,[8],> 128 µg/mL
same,HSA Binding (%),"[9]; AB%=[k′/(k′+1)]*100, chiral HSA column, pH 7.0",45.2%
same,k′,"[9]; capacity factor, k′=(Tr−T0)/T0",0.826
same,Conclusion (HSA binding class),[9]; chiral HSA column,Low binding (AB<75%: Low binding)
same,Tr,"[9]; retention time on chiral HSA column, pH 7.0, 37° C.",1.410 min
same,affinity in vitro to human albumin,[9]; text summary of Table 7,low affinity
